Patent publication US20250011311A1, “AMIDO HETEROAROMATIC COMPOUNDS” (AstraZeneca AB, priority 2022, published 2025)

Assays:
[1] = biological target: over expressed HSD17β13 in HEK293S cells (Homo sapiens (Human), UniProt Q7Z5P4); assay: In Vitro 17bHSD13 Cell Assay; assay type: cell-based; conditions: HEK293S cells over expressing HSD17β13; estradiol to estrone conversion, 18 h, LC-MS/MS; read-out: 17bHSD1713 Cell assay IC50
Experimental: In Vitro 17bHSD13 Cell Assay
Inhibition of 17bHSD13 was measured in a cell-based assay with over expressed HSD17β13 in HEK293S cells, measuring estradiol to estrone conversion by LCMS/MS.
Samples were analyzed using LC-MS/MS.
(§1) SCIEX LC-MS/MS system: Sample was injected with CTC analytical injector, SHIMATZU LC pumps LC20 and analysed on the SCIEX API 5000 LCMSMS system with the following settings. […] The mobile phases consist of A (water with 0.2% formic acid) and B (acetonitrile with 0.2% formic acid). The LC gradient profile is as follows: 50% B during 0 to 0.5 min, a linear increase to 100% B during 0.5 to 1 min, hold at 100% B during 1 to 1.6 min then back to 50% B from 1.6 to 2 min. […] Detection was performed on a API 5000 LC/MS/MS system with a triple quadrupole mass spectrometer, a TURBO V ion source, in multiple reaction monitoring (MRM) mode at positive polarity with APCI probe. […] The dwell times were 100 ms for each transition and a depolarization and collision energy of 100 and 40, respectively. Data from MS signals was using area under curve (AUC). Ratio=Estrone/(Estrone+Estradiol)
(§2) […] […] was used for curve fitting and calculation of IC50 values.
(§3) Compound effect was calculated with the formula below;
(§4) where X represents the effect in the presence of test compound, min is DMSO and max is the maximum inhibition of enzyme using a known inhibitor as control.

[2] = biological target: over expressed HSD17β9 in HEK293S cells (Homo sapiens (Human), UniProt Q92781); assay: In Vitro 17bHSD9 Cell Assay; assay type: cell-based; conditions: HEK293S cells over expressing HSD17β9; retinol to retinal conversion, 18 h, LC-MS/MS; read-out: 17bHSD9 Cell assay IC50
Experimental: In Vitro 17bHSD9 Cell Assay
Inhibition of 17bHSD9 was measured in a cell-based assay with over expressed HSD17β9 in HEK293S cells, measuring retinol to retinal conversion by LCMS/MS.
Cells were plated in 384 well plates (GREINER CELL culture plate 384w black/clear Poly-D-Lysine) at 10 K c/w in 30 μl of culture media (DMEM with GLUTAMAX plus 10% FBS). […] After 18 h of cell culturing for 20 μl of media was transferred using BRAVO dispensing robot (AGILENT) to a GREINER PP 384 well plate (781280) and 40 μl of 50% acetonitrile was added. Samples were analyzed using LC-MS/MS.
SCIEX LC-MS/MS system: Sample was injected with CTC analytical injector, SHIMATZU LC pumps LC20 and analysed on the SCIEX API 5000 LCMSMS system with the following settings. Samples were chromatographed on a WATERS, symmetry, C8, 3.5 μm, 2.1×50 mm) column at constant flow rate of 0.5 mL/min. The mobile phases consists of A (water with 0.2% formic acid) and B (acetonitrile with 0.2% formic acid). The LC gradient profile is as follows: 50% B during 0 to 0.1 min, a linear increase to 100% B during 0.1 to 0.8 min, hold at 100% B during 0.8 to 1.5 min then back to 50% B from 1.5 to 1.6 min and hold during run time. The run time was 2 min with retention times of approximately 1.54 and 1.62 min for Retinol and Retinal, respectively. Detection was performed on a API 5000 LC/MS/MS system with a triple quadrupole mass spectrometer, a TURBO V ion source, in multiple reaction monitoring (MRM) mode at positive polarity with ESI probe. The MRM pairs were m/z 269.3 to m/z 93.0 and m/z 285.2 to 161.0. for Retinol and Retinal, respectively. The dwell times were 100 ms for each transition and a depolarization and collision energy of 50 and 25, respectively. Data from MS signals was using area under curve (AUC). Ratio=Retinal/(Retinal+Retinol).
as §2, §3, §4

[3] = biological target: recombinant 17bHSD13 (N2-K300) (Homo sapiens (Human), UniProt Q7Z5P4); assay: In Vitro 17bHSD13 Enzyme Assay; assay type: biochemical; conditions: 80 nM 17bHSD13, 0.5 mM NAD, 20 μM Estradiol, 2.5 h; estradiol to estrone by LC-MS/MS
Experimental: In Vitro 17bHSD13 Enzyme Assay
The enzyme reaction was initiated by addition, using CERTUS-FLEX dispenser (GYGER), of 20 μl of substrate solution containing NAD (SIGMA, N1511) and Estradiol (SIGMA, E8875). […] Final assay conditions were 80 nM of 17bHSD13, 0.5 mM of NAD, 20 μM Estradiol and various concentrations of compound in buffer (5 mM EDTA (TEKNOVA E0306), 0.01% DDM (AFFYMETRIX D310) in 50 mM Tris-Cl, pH 7.4).
as §1, with “analyzed” for “analysed”
as §2, §3, §4

Sequence of over expressed HSD17β9 in HEK293S cells (Q92781 whole entry): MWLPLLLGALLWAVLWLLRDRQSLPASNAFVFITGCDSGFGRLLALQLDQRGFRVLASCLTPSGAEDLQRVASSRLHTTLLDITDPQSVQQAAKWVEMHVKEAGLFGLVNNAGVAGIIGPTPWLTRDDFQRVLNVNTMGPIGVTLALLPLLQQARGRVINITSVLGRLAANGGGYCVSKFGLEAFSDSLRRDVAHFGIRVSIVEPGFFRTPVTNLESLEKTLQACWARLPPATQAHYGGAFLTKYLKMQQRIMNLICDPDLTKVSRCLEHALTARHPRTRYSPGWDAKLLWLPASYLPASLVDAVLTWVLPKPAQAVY
Sequence of recombinant 17bHSD13 (N2-K300) (Q7Z5P4 2-300): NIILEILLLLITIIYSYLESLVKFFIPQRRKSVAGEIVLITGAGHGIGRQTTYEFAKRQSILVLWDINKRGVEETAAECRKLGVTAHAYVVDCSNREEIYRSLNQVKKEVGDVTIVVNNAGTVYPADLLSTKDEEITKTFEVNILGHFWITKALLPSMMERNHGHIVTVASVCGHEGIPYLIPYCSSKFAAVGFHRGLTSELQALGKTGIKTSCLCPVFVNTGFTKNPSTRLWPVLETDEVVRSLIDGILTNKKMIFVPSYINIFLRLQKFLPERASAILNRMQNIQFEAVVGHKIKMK
Sequence of over expressed HSD17β13 in HEK293S cells (Q7Z5P4 20-300): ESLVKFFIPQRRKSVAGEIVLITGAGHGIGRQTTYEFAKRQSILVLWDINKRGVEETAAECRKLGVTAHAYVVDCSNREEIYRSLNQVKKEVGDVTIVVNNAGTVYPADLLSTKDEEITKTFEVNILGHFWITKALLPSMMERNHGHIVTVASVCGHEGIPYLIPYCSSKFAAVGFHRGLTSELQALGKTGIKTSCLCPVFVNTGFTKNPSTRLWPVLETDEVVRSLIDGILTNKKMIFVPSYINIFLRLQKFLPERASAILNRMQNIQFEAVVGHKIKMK

| Structure (SMILES) | IC50 [1] [nM] | IC50 [2] [nM] | IC50 [3] [nM] |
| --- | --- | --- | --- |
| COc1cccc(N2CCN(C(=O)c3noc(-c4cc(C(F)(F)F)[nH]c(=O)c4)n3)CC2)c1 [Example 10, 4-(3-(4-(3-Methoxyphenyl)piperazine-1-carbonyl)-1,2,4-oxadiazol-5-yl)-6-(trifluoromethyl)pyridin-2(1H)-one] | 4140 | > 50000 | 474 |
| N#Cc1c(C(=O)N2CCC(n3cc(-c4ccc(F)cc4)[nH]c3=O)CC2)noc1-c1cc(F)c(F)c(O)c1F [Example 24, 3-(4-(4-(4-Fluorophenyl)-2-oxo-2,3-dihydro-1H-imidazol-1-yl)piperidine-1-carbonyl)-5-(2,4,5-trifluoro-3-hydroxyphenyl)isoxazole-4-carbonitrile] | 3500 | – | 198 |
| N#Cc1c(C(=O)N2CC(C(F)(F)F)C2)noc1-c1cc(F)c(F)c(O)c1F [Example 28, 5-(2,4,5-Trifluoro-3-hydroxyphenyl)-3-(3-(trifluoromethyl)azetidine-1-carbonyl)isoxazole-4-carbonitrile] | 4130 | – | 368 |
| Cc1cc2nc(CN(C)C(=O)c3noc(-c4cc(F)c(F)c(O)c4F)n3)[nH]c2cc1C [Example 71, N-((5,6-Dimethyl-1H-benzo[d]imidazol-2-yl)methyl)-N-methyl-5-(2,4,5-trifluoro-3-hydroxyphenyl)-1,2,4-oxadiazole-3-carboxamide] | 28400 | – | 68 |
| Cc1ccc2[nH]c(CN(C)C(=O)c3noc(-c4cc(F)c(F)c(O)c4F)n3)nc2c1 [Example 73, N-Methyl-N-((5-methyl-1H-benzo[d]imidazol-2-yl)methyl)-5-(2,4,5-trifluoro-3-hydroxyphenyl)-1,2,4-oxadiazole-3-carboxamide] | 21600 | > 50000 | 88 |
| Cc1cccnc1CN(C(=O)c1noc(-c2cc(F)c(F)c(O)c2F)n1)C(C)C [Example 75, N-Isopropyl-N-((3-methylpyridin-2-yl)methyl)-5-(2,4,5-trifluoro-3-hydroxyphenyl)-1,2,4-oxadiazole-3-carboxamide] | 5600 | – | 268 |
| CN(C(=O)c1nnc(-c2ccc(F)c(O)c2)o1)c1nnnn1-c1ccccc1 [Example 91, 5-(4-Fluoro-3-hydroxyphenyl)-N-methyl-N-(1-phenyl-1H-tetrazol-5-yl)-1,3,4-oxadiazole-2-carboxamide] | > 50000 | – | 166 |
| O=C(NCc1ccnn1C1CCCCC1)c1cnc(-c2ccc(F)c(O)c2)o1 [Example 100, N-((1-Cyclohexyl-1H-pyrazol-5-yl)methyl)-2-(4-fluoro-3-hydroxyphenyl)oxazole-5-carboxamide] | 18100 | – | 5340 |

Stronger by IC50 [1], values ahead:

| IC50 [1] [nM] | IC50 [2] [nM] | IC50 [3] [nM] | Structure (SMILES) |
| --- | --- | --- | --- |
| 1540 | > 50000 | 41 | CN(C(=O)c1noc(-c2ccc(F)c(O)c2)n1)c1nnnn1-c1ccccc1 [Example 92, 5-(4-Fluoro-3-hydroxyphenyl)-N-methyl-N-(1-phenyl-1H-tetrazol-5-yl)-1,2,4-oxadiazole-3-carboxamide] |
| 1260 | – | 3760 | CN(C)C(=O)C1CCCN1C(=O)c1ccc(-c2cc(F)c(F)c(O)c2F)s1 (stereo not shown) [Example 105, N,N-Dimethyl-1-(5-(2,4,5-trifluoro-3-hydroxyphenyl)thiophene-2-carbonyl)pyrrolidine-2-carboxamide] |
| 1190 | – | – | CN(C(=O)c1noc(-c2cc(F)c(F)c(O)c2F)n1)c1cccc(C#N)c1 [Example 63, N-(3-Cyanophenyl)-N-methyl-5-(2,4,5-trifluoro-3-hydroxyphenyl)-1,2,4-oxadiazole-3-carboxamide] |
| 960 | – | 112 | COc1ccc(N2CCN(C(=O)c3noc(-c4cc(F)c(F)c(O)c4F)n3)CC2)cc1 [Example 55, (4-(4-Methoxyphenyl)piperazin-1-yl)(5-(2,4,5-trifluoro-3-hydroxyphenyl)-1,2,4-oxadiazol-3-yl)methanone] |
| 730 | > 50000 | 50 | COc1cccc(N2CCN(C(=O)c3noc(-c4cc(F)c(F)c(O)c4F)n3)CC2)c1 [Example 61, (4-(3-Methoxyphenyl)piperazin-1-yl)(5-(2,4,5-trifluoro-3-hydroxyphenyl)-1,2,4-oxadiazol-3-yl)methanone] |
| 700 | > 50000 | 52 | O=C(c1noc(-c2cc(F)c(F)c(O)c2F)n1)N1CCC2(C1)OCc1ccccc12 (stereo not shown) [Example 102, (3H-Spiro[isobenzofuran-1,3′-pyrrolidin]-1′-yl)(5-(2,4,5-trifluoro-3-hydroxyphenyl)-1,2,4-oxadiazol-3-yl)methanone] |
| 420 | > 50000 | 50 | O=C(c1cc(-c2ccc(F)c(O)c2)on1)N1CC[C@H](c2ccccc2)C1 [Example 101, (R)-(5-(4-Fluoro-3-hydroxyphenyl)isoxazol-3-yl)(3-phenylpyrrolidin-1-yl)methanone] |
| 410 | > 50000 | 95 | O=C(c1noc(-c2cc(F)c(F)c(O)c2F)n1)N1CCN(c2ccccc2)CC1 [Example 81, (4-Phenylpiperazin-1-yl)(5-(2,4,5-trifluoro-3-hydroxyphenyl)-1,2,4-oxadiazol-3-yl)methanone] |
| 200 | – | 134 | O=C(c1noc(-c2cc(F)c(F)c(O)c2F)n1)N1Cc2ccc(F)cc2C1 [Example 65, (5-Fluoroisoindolin-2-yl)(5-(2,4,5-trifluoro-3-hydroxyphenyl)-1,2,4-oxadiazol-3-yl)methanone] |
